According to patent publication US8481494B2, “Compounds for the treatment of diseases related to protein misfolding” (priority 2009, dated 2013):
Values after ≈ are worked out from the molar mass of the structure shown. Read-outs that look alike come from different tables or passages of the source.

Legend:
[1] = target: T1, Aβ(1-42) (Homo sapiens, UniProt P05067); experiment: ThT equilibrium inhibition assay of Aβ aggregation; format: biochemical; conditions: for ThT values compared with the original trimer: Aβ(1-42), in words
T1 construct: Aβ(1-42)-peptide (Bachem, Bubendorf, Germany) was prepared in HFIP; purchased Bachem, Bubendorf
Experimental: After 72 h, the aggregation process has reached a maximum in the absence or presence of any trimeric ligand, even for the slow Aβ (1-40) peptide. The respective equilibrium concentration is then indicated by the relative fluorescence intensity reached at the end point. The full series of new aminopyrazole trimer derivatives was subjected to ThT inhibition experiments and the final equilibrium was analyzed by comparison of the respective fluorescence intensities of intercalated dye at 482 nm (exc. at 442 nm). […] Their proposed mechanism of action is discussed within the next chapters together with all the other biophysical, biochemical as well as modeling data.
(§1) Thioflavin T (ThT) measurements were carried out in a 384-well plate (Nunc GmbH, Wiesbaden, Germany) in an InfiniTe 200 plate reader (Tecan GmbH, Crailsheim, Germany). Fluorescence intensity was measured at 37° C., 446 nm excitation wavelength (bandwidth 9 nm) and 490 nm emission wavelength with a bandwidth of 20 nm. Each data point was averaged over 40 lamp flashes. Each measurement cycle was started by shaking the sample carrier orbitally for 30 s at medium intensity to avoid settling of larger aggregates. The 384-well plate was covered with a transparent and DMSO-stable film (Nunc GmbH, Wiesbaden, Germany). Each single sample was composed of 33 μM Aβ(1-40) or rather Aβ(1-42) in 10 mM PBS (phosphate buffered saline), 10.7% DMSO, 10 μM ThT and 198 μM of the test compound. For graph representation emission values of fourfold samples were averaged. Each test compound was measured separately, both in 10 mM PBS and 10 mM PBS with ThT to exclude any potential interactions between ligand and ThT.
The ThT assay solution was briefly centrifugated and it was pipetted in a 384-well plate. The ThT fluorescence was measured at λEx=446 nm and λEm=490 nm. Each point is the average of quadruplication.

[2] = target: T2, preformed Aβ(1-42) fibrils (Homo sapiens, UniProt P05067); experiment: ThT equilibrium disaggregation assay of preformed fibrils; format: biochemical; conditions: 33 μM Aβ42 preformed fibrils, 198 μM ligand, 10 mM PBS pH 7.3
T2 construct: Aβ(1-42)-peptide (Bachem, Bubendorf, Germany) was prepared in HFIP; purchased Bachem, Bubendorf
Source text: Starting from preformed fibrils, the disassembly process was also monitored with the full series of modified trimeric aminopyrazoles. […] In other words, little difference is observed between the end points of aggregation assays, in which the ligand inhibits de novo aggregation starting from monomeric Aβ molecules, and those experiments, which require disaggregation of preformed fibrils by externally added ligand. Experimental evidence is thus provided for the fact, that aminopyrazole ligands operate in a fully reversible fashion, and reach an open equilibrium when the thermodynamically most favorable complex is formed.
as §1
After that, 9.5 μL ThT (62.7 μM stock solution) was pipetted and the assay solution was briefly centrifugated. The ThT fluorescence was measured at λEx=446 nm and λEm=490 nm. For graph representation emission values of fourfold samples were averaged.

[3] = test system: differentiated rat pheochromocytoma (PC-12) cells; experiment: cells; conditions: for PC-12 cell protection: in words, compared to the Trimer standard
Experimental: Next, to examine whether the aminopyrazole trimers could protect cell from Aβ42-induced neurotoxicity, cells were treated for […] with 10 μM Aβ(1-42), a concentration that produces 30 to 40% decrease in cell viability, in the absence or presence of 100 μM of each compound. The viability of the cells then was assessed using the MTT assay.
MTT viability assays. Cell viability assays were performed as described in Fradinger et al. (Fradinger et al., PNAS, 2008). Rat pheochromocytoma (PC-12) cells were maintained in F-12 nutrient mixture with Kaighn's modification (F-12K) (Gibco BRL, Carlsbad, Calif.) with 15% heat-inactivated horse serum and 2.5% FBS at 37° C. in an atmosphere of 5% CO2. For cell viability assays, cells were plated in 96-well plates at a density of 25,000 cells per well in differentiation media (F-12K, 0.5% FBS, […] nerve growth factor) and maintained for 48 h. Aβ42 was solubilized in a minimal amount of DMSO (Sigma) and then diluted in the F-12K media in the absence or presence of the compounds and then added to cells and incubated for 48 h at 37° C. The final Aβ42 concentration was always kept constant at 10 μM. The stock solutions of the compounds were prepared at 10 mM in DMSO and diluted in the F-12K media at the required concentration. Negative controls included DMSO at the same concentration as in the peptide solutions and media alone. A positive control was […] staurosporine as lethal dose which represented 100% reduction in cell viability, based on which the percentage viability of all of the experimental conditions was calculated. Cell viability was assessed quantitatively by the CellTiter 96 Non-Radioactive Cell Proliferation Assay (Promega). Briefly, 15 μl of 3-(4,5-dimethylthiazol-2-yl)-2,5-diphenyltetra-zolium bromide (MTT) dye solution was incubated with the cells for 3 h. Then 100 μl of solubilization/stop solution was added and the plates were incubated overnight in the dark to ensure complete solubilization. Plates were read by using a Synergy HT microplate reader (BioTek), and the absorbance at 570 nm (formazan product) minus the absorbance at 630 nm (background) was recorded. Corrected absorbance was used to calculate the percent cell viability from the experimental change (Amedia-Aexperimental) over the dynamic range (Amedia-Astaurosporine). At least three independent experiments with six replicates (n≧18) were carried out, and the results were averaged.
To determine the IC50 value of each of the compounds, dose-dependence MTT experiments with the compounds were conducted. Aβ42 was used at 10 μM and the compounds were used at 100, 30, 10, 3, 1 and 0.3 μM. Three independent experiments with six replicates (n≧18) were carried out, and results were averaged. The data for each compound was fitted to the following equation to get the IC50 values. y=Bottom+((Top−Bottom)/(1+10^(x-log(IC^50^))))
Top: the y value at which the top of the sigmoidal curve becomes parallel to the X-axis; Bottom: the y value at which the bottom of the sigmoidal curve becomes parallel to the X-axis.
Also, MTT viability assays were run with differentiated PC-12 cells.

[4] = Solubility of the unprotected aminopyrazole trimers (stock solutions); conditions: water (class a) or DMSO (class b)
Experimental: The ligands were dissolved in 100% DMSO as 4.95 mM stock solutions and were stored at −20° C.

[5] = Rattus norvegicus, PC-12, read-out: IC50 of inhibition of Aβ-induced toxicity

T1 sequence (P05067 672-713 limits assumed): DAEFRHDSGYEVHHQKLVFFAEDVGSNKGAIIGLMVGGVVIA
T2 sequence (P05067 672-713 limits assumed): as above

| Compound | IC50 [3, 5] | solubility [4] | ThT values compared with the original trimer [1] | further results |
| --- | --- | --- | --- | --- |
| 1-(3-(3-(3-nitro-1H-pyrazole-5-carboxamido)-1H-pyrazole-5-carbox-amido)-1H-pyrazol-5-yl)-1-oxo-5,8,11-trioxa-2-azatridecan-13-carboxamido-(S)-lysinyl-(S)-lysinyl-(S)-lysinyl-(S)-lysinyl-(S)-lysinyl-(S)-glycine [Trimer-TEG-KKKKKG-OH] | – | – | – | ThT fluorescence level, inhibition of aggregation ([1]; 33 μM Aβ42, 198 μM ligand, 10 mM PBS pH 7.3, 72 h): 20%; ThT fluorescence level, disaggregation [2]: 20% |
| NCCCC[C@H](NC(=O)c1cc(NC(=O)c2cc(NC(=O)c3cc([N+](=O)[O-])n[nH]3)n[nH]2)n[nH]1)C(=O)NCCCOCCOCCOCCCNC(=O)[C@H](CCCCN)NC(=O)c1cc(NC(=O)c2cc(NC(=O)c3cc([N+](=O)[O-])n[nH]3)n[nH]2)n[nH]1 [Trim-Lys-TEGDA-Lys-Trim, N,N′-((5S,23S)-1,27-diamino-6,22-dioxo-11,14,17-trioxa-7,21-diazaheptacosane-5,23-diyl)bis(3-(3-(3-nitro-1H-pyrazole-5-carboxamido)-1H-pyrazole-5-carboxamido)-1H-pyrazole-5-carboxamide)] | 21.5 µM | > 4.95 mM | – | – |
| CC(NC(=O)c1cc(NC(=O)c2cc(NC(=O)c3cc([N+](=O)[O-])n[nH]3)n[nH]2)n[nH]1)C1CCCCC1 (stereo not drawn) [Trimer-Che, N-(1-Cyclohexylethyl)-3-(3-(3-nitro-1H-pyrazole-5-carboxamido)-1H-pyrazole-5-carboxamido)-1H-pyrazole-5-carboxamide] | – | 0.2 to 4.95 mM (≈ 96.9 to 2400 µg/mL) | surpass the original trimer activity | – |
| CC(NC(=O)C(NC(=O)c1cc(NC(=O)c2cc(NC(=O)c3cc([N+](=O)[O-])n[nH]3)n[nH]2)n[nH]1)C1CCCCC1)C1CCCCC1 (stereo not drawn) [Trimer-Chg-Che, N-(1-Cyclohexyl-2-(1-cyclohexylethylamino)-2-oxoethyl)-3-(3-(3-nitro-1H-pyrazol-5-carboxamido)-1H-pyrazol-5-carboxamido)-1H-pyrazol-5-carboxamide] | 81 µM | 0.2 to 4.95 mM (≈ 125 to 3090 µg/mL) | – | – |
| O=C(O)CCCNC(=O)c1cc(NC(=O)c2cc(NC(=O)c3cc([N+](=O)[O-])n[nH]3)n[nH]2)n[nH]1 [Trimer-GABA-OH, 4-(3-(3-(3-Nitro-1H-pyrazole-5-carboxamido)-1H-pyrazole-5-carboxamido)-1H-pyrazole-5-carboxamido)butanoic acid] | 18.5 µM | 0.2 to 4.95 mM (≈ 92.1 to 2280 µg/mL) | above the trimer standard | – |
| COC(=O)CCCNC(=O)c1cc(NC(=O)c2cc(NC(=O)c3cc([N+](=O)[O-])n[nH]3)n[nH]2)n[nH]1 [Trimer-GABA-OMe, 4-(3-(3-(3-Nitro-1H-pyrazole-5-carboxamido)-1H-pyrazole-5-carboxamido)-1H-pyrazole-5-carboxamido)butanoic acid methyl ester] | 20.3 µM | 0.2 to 4.95 mM (≈ 94.9 to 2350 µg/mL) | above the trimer standard | – |
| CC(NC(=O)C(CCCCN)NC(=O)c1cc(NC(=O)c2cc(NC(=O)c3cc([N+](=O)[O-])n[nH]3)n[nH]2)n[nH]1)C1CCCCC1.O=C(O)C(F)(F)F (stereo not drawn) [Trimer-Lys-Che, N-(6-Amino-1-(1-cyclohexylethylamino)-1-oxohexan-2-yl)-3-(3-(3-nitro-1H-pyrazole-5-carboxamido)-1H-pyrazole-5-carboxamido)-1H-pyrazole-5-carboxamide-trifluoro-acetate] | – | > 4.95 mM | surpass the original trimer activity | – |
| CC(NC(=O)COCCOCCOCCNC(=O)c1cc(NC(=O)c2cc(NC(=O)c3cc([N+](=O)[O-])n[nH]3)n[nH]2)n[nH]1)C1CCCCC1 (stereo not drawn) [Trimer-TEG-Che, N-(13-Cyclohexyl-11-oxo-3,6,9-trioxa-12-azatetradecyl)-3-(3-(3-nitro-1H-pyrazole-5-carboxamido)-1H-pyrazole-5-carboxamido)-1H-pyrazole-5-carboxamide] | – | 0.2 to 4.95 mM (≈ 135 to 3330 µg/mL) | – | – |
| CCCCCCCCCCCCNC(=O)COCCOCCOCCNC(=O)c1cc(NC(=O)c2cc(NC(=O)c3cc([N+](=O)[O-])n[nH]3)n[nH]2)n[nH]1 [Trimer-TEG-Dodecyl, 3-Nitro-N-(5-(5-(11-oxo-3,6,9-trioxa-12-azatetracosylcarbamoyl)-1H-pyrazol-3-ylcarbamoyl)-1H-pyrazol-3-yl)-1H-pyrazole-5-carboxamide] | > 100 µM | 0.2 to 4.95 mM (≈ 146 to 3620 µg/mL) | – | – |
| CCOC(=O)COCCOCCOCCNC(=O)c1cc(NC(=O)c2cc(NC(=O)c3cc([N+](=O)[O-])n[nH]3)n[nH]2)n[nH]1 [Trimer-TEG-OEt, 1-(3-(3-(3-Nitro-1H-pyrazole-5-carboxamido)-1H-pyrazole-5-carboxamido)-1H-pyrazole-5-yl)-1-oxo-5,8,11-trioxa-2-azatridecan-13-oic acid ethyl ester] | – | 0.2 to 4.95 mM (≈ 119 to 2930 µg/mL) | – | PC-12 cell protection [3]: only very modest |
| O=C(O)COCCOCCOCCNC(=O)c1cc(NC(=O)c2cc(NC(=O)c3cc([N+](=O)[O-])n[nH]3)n[nH]2)n[nH]1 [Trimer-TEG-OH, {2-[2-(2-{[5-({5-[(5-Nitro-2H-pyrazole-3-carbonyl)-amino]-2H-pyrazole-3-carbonyl}-amino)-2H-pyrazole-3-carbonyl]-amino}-ethoxy)-ethoxy]-ethoxy}-acetic acid] | 35.3 µM | 0.2 to 4.95 mM (≈ 113 to 2790 µg/mL) | – | PC-12 cell protection [3]: only very modest |
| NCCNC(=O)c1cc(NC(=O)c2cc(NC(=O)c3cc([N+](=O)[O-])n[nH]3)n[nH]2)n[nH]1 [Trimer-diamine, N-(2-Aminoethyl)-3-(3-(3-nitro-1H-pyrazole-5-carboxamido)-1H-pyrazole-5-carboxamido)-1H-pyrazole-5-carboxamide] | – | 0.2 to 4.95 mM (≈ 83.5 to 2070 µg/mL) | above the trimer standard | – |
| Trimer-TEG-LPFFD-OH [1-(3-(3-(3-nitro-1H-pyrazole-5-carboxamido)-1H-pyrazole-5-carbox-amido)-1H-pyrazol-5-yl)-1-oxo-5,8,11-trioxa-2-azatridecan-13-carboxamido-(S)-leucinyl-(S)-prolinyl-(S)-phenylalaninyl-(S)-phenylalaninyl-(S)-aspartic acid] | – | – | – | IC50 ([3]; read-out: IC50 of inhibition of Aβ-induced toxicity, PC-12 cells, MTT, Aβ42 10 μM, ligand 0.3-100 μM): 10.1 µM |
